The source of these data is patent publication US20240197760A1, “ACTIVATORS OF INTEGRATED STRESS RESPONSE PATHWAY FOR PROTECTION AGAINST FERROPTOSIS” (Burke Neurological Institute, priority 2021, published 2024).

The experiment has as its system ATF4. Nature of the experiment: ATF4 chromatin immunoprecipitation sequencing in primary neurons. Type of experiment: cell-based, mouse. To be noted: 10 mM, 6 h. Here is the method:
ChIP-seq was performed according to the ChIPmentation protocol with minor modifications. In brief, 40 million primary neurons were used for each condition. Cells were fixed in methanol free formaldehyde (1% final concentration) for 10 min at room temperature with slow rotation to allow the cross-linking of chromatin proteins and DNA. Cross-linking was stopped by incubation with 0.125 M glycine for 5 min at room temperature. The cells were washed twice with ice-cold phosphate-buffered saline (PBS) and 2 ml of cell scrapping solution was added cell were scrapped and collected in respective tubes. Tubes with cells were centrifuged at 2800 rpm for 10 min at 4° C. and supernatant was aspirated out. Cell pellets left in the tube were resuspended in 300 μl of 0.25% SDS sonication buffer (10 mM Tris-HCl [pH 8.0], 2 mM EDTA, 0.25% SDS, and protease inhibitor cocktail). The lysates were transferred to 1.5 ml TPX microtubes for sonication (Diagenode, Catalog number: 20190430) and sonicated by Biorupter sonication device (Diagenode) to shear genomic DNA into 200-600 bp fragments. The lysates were centrifuged to remove debris and were then diluted 1:1.5 in equilibration buffer (10 mM Tris-HCl [pH 8.0], 1 mM EDTA, 1.67% Triton X-100, 0.17% sodium deoxycholate, 233 mM NaCl, and protease inhibitor cocktail). […]

On to `OC[C@H]1OC(O)C[C@@H](O)[C@@H]1O` (stereo partly drawn) [2-DG, (4R,5S,6R)-6-(hydroxymethyl)oxane-2,4,5-triol], for which the “ATF4 binding at Bdnf (ChIP-Seq)” value is “selective enrichment of ATF4 close to the transcription start site of Bdnf” and the “ATF4 binding to other plasticity genes (ChIP-Seq)” value was “enhanced binding of ATF4 to several plasticity genes”.
